# In ChEMBL document CHEMBL1201862, “PubChem BioAssay data set” (2004):
# The source made the active and inactive calls.
# How the values were obtained:
# [1] = molecular target: T1, Carboxy-terminal domain RNA polymerase II polypeptide A small phosphatase 1 (Homo sapiens, UniProt Q9GZU7); assay: CTDSP1 inhibitors, concentration-response, biochemical, absorbance readout, ultra-high-throughput screen actives (AID 540297); format: functional
# T1 sequence (Q9GZU7 whole entry): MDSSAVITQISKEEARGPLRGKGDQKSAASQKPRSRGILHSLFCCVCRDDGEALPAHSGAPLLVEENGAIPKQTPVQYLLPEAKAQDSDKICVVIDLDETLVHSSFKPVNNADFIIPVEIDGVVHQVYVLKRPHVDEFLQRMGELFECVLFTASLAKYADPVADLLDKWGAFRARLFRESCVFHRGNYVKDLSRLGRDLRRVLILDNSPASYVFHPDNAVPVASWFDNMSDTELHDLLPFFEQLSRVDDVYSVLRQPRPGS
# Large T antigen = Large T antigen (Simian virus 40, UniProt P03070); format: functional, Betapolyomavirus macacae;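 note: Confirmatory-stage PubChem screen for compounds that inhibit SV40 T antigen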
# Chain of Large T antigen (P03070 whole entry): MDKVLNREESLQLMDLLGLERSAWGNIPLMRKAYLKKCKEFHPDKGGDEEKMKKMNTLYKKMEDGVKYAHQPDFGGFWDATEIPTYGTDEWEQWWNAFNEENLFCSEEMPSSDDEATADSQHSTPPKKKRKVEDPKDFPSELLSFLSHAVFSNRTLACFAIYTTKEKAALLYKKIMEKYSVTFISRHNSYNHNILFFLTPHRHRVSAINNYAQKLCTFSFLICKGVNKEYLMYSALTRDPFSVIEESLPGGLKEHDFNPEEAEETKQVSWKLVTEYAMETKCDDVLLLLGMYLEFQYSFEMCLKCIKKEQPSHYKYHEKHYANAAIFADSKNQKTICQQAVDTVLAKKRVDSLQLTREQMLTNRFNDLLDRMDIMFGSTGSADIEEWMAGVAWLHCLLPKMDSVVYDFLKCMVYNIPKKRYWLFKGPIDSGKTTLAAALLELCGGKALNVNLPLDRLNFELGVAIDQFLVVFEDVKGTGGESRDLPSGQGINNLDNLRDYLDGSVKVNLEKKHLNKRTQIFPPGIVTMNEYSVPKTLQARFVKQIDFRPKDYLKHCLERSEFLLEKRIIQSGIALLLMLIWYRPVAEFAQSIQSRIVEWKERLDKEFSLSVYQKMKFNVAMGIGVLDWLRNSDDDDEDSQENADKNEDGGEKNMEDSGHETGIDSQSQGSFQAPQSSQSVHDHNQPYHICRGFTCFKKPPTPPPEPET
# [2] = molecular target: T2, Bifunctional protein GlmU (Mycobacterium tuberculosis, UniProt P9WMN3); assay: Inhibitors of Mycobacterial Glucosamine-1-phosphate acetyl transferase (GlmU). Secondary screen.; set-up: species or system Mycobacterium tuberculosis H37Rv
# T2 sequence (P9WMN3 whole entry): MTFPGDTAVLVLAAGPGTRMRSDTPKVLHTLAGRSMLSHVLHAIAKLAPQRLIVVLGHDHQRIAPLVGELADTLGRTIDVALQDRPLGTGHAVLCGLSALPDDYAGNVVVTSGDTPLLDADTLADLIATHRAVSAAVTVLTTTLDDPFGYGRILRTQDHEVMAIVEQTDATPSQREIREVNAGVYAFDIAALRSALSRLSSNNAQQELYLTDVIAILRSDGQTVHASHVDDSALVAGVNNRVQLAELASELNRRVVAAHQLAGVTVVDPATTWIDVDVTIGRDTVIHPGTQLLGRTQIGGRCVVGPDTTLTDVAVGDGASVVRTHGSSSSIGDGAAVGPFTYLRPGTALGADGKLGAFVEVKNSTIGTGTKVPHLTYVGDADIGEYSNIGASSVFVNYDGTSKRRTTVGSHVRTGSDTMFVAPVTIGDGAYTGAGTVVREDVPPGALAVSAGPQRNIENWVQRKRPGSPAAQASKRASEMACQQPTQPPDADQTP
# Genome polyprotein = Genome polyprotein (dengue virus type 2, UniProt P29990); assay: flavivirus cap methylation enzyme inhibition – biochemical, confirmation dose response, primary screen (AID 588689); format: functional
# Chain of Genome polyprotein (P29990 2492-3391 limits assumed): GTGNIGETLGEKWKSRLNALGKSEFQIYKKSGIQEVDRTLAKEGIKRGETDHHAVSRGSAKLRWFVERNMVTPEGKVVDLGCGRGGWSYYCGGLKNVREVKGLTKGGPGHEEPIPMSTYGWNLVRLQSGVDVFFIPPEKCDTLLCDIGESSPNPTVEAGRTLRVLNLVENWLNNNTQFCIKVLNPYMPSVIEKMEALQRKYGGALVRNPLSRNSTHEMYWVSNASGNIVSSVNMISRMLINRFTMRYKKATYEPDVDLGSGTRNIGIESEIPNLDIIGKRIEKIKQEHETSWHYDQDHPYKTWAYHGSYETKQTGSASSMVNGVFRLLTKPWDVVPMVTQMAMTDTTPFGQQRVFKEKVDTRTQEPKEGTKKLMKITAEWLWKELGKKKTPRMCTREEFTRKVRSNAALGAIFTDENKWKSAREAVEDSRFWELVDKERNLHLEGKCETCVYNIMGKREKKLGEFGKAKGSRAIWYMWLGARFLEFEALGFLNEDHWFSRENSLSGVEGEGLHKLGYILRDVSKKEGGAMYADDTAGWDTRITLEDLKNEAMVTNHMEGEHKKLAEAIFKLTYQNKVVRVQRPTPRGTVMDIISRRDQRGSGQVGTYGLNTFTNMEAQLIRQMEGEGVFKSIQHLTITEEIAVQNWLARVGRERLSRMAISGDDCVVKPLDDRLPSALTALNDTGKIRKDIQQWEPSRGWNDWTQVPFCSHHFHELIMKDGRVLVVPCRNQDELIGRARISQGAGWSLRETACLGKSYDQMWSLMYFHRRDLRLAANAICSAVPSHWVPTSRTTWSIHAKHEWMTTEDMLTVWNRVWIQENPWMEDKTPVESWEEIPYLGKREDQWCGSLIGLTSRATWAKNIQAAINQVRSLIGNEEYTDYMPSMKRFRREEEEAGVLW
# Ion channel NompC = Ion channel NompC (Danio rerio, UniProt Q7T1G6); assay: Fluorescence counterscreen assay for TRPML3 agonists: dose response cell-based high-throughput screening assay to identify agonists of the transient receptor potential channel N1 (TRPN1). [Related pubchem assays: 1526, 1424, 1448 ]; format: functional
# Mucolipin-3 = molecular target: T3, Mucolipin-3 (Homo sapiens, UniProt Q8TDD5); assay: Dose response cell-based high-throughput screening assay for agonists of the transient receptor potential channel ML3 (TRPML3). [Related pubchem assays: 1526, 1424, 1448 ]; format: functional
# T3 sequence (Q8TDD5 whole entry): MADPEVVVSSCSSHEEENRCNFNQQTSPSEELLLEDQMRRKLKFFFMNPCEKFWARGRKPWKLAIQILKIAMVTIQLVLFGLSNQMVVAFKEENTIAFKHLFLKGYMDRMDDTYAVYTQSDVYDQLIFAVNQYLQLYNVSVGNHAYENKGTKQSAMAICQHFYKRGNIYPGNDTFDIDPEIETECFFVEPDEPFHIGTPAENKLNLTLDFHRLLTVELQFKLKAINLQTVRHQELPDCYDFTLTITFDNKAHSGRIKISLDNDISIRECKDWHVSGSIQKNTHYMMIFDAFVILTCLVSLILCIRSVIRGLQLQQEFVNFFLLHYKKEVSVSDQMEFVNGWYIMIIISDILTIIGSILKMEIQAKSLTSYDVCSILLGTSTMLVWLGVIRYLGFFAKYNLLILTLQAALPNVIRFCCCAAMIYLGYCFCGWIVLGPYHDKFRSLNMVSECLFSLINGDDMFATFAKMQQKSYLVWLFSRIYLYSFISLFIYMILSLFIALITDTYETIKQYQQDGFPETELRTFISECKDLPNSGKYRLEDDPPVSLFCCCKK
# [3] = molecular target: Eukaryotic translation initiation factor 4H (Homo sapiens, UniProt Q15056); assay: inhibitors of translation initiation factor eIF4H – SAR follow-up (AID 435011); format: functional
# [4] = molecular target: T4, Polyadenylate-binding protein 1 (Homo sapiens, UniProt P11940); assay: PABP inhibition in translation initiation, SAR follow-up (AID 435018); format: functional
# T4 sequence (P11940 whole entry): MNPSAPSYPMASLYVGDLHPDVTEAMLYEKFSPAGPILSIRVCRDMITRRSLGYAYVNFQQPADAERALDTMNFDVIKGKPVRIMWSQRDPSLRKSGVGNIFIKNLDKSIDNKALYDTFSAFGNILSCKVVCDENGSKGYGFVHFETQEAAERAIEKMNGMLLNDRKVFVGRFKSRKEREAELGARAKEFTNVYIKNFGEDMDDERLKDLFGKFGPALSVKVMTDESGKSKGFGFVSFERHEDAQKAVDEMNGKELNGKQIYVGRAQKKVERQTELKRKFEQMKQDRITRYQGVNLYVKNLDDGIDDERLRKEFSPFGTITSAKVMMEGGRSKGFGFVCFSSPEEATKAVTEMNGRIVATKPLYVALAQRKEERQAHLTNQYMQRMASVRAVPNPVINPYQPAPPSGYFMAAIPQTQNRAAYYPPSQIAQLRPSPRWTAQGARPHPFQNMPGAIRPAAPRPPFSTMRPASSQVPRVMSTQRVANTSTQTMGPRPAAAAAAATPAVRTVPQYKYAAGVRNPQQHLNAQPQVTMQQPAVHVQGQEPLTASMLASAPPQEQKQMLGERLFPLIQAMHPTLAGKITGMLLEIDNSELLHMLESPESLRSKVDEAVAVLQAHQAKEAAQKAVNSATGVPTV
# Hexokinase HKDC1 = molecular target: T5, Hexokinase HKDC1 (Homo sapiens, UniProt Q2TB90); assay: inhibition of HKDC1 glucose phosphorylation – biochemical, W721R variant, dose response (AID 504729); format: functional
# T5 sequence (Q2TB90 whole entry): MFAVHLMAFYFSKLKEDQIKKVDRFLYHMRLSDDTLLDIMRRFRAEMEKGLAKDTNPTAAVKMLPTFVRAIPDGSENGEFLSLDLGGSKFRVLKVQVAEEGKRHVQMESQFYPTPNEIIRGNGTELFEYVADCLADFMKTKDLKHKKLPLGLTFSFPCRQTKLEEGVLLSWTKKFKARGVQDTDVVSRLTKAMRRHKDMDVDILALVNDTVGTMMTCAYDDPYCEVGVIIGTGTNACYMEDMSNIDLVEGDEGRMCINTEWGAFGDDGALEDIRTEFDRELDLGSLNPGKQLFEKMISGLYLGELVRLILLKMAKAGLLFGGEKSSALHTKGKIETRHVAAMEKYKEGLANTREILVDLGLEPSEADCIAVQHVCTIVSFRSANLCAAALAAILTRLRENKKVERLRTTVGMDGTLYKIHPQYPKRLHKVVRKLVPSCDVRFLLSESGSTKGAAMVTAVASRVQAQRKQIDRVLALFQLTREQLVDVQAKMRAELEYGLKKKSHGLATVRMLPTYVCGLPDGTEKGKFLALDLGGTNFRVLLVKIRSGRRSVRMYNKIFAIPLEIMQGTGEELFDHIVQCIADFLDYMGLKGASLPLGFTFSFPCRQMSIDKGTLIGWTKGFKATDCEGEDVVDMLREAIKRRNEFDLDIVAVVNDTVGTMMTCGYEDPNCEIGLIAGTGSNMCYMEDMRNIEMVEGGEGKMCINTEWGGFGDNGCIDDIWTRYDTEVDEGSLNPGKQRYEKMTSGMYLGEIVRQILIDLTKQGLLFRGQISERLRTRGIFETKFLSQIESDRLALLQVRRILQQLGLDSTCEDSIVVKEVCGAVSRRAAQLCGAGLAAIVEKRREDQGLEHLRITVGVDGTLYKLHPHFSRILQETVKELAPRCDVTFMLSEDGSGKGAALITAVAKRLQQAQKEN
# Fatty acid synthase [5] = molecular target: T6, Fatty acid synthase (Homo sapiens, UniProt P49327); assay: inhibition of human FAS-TE enzyme activity – biochemical, endpoint fluorescence intensity, uHTS hits, dose response (AID 624327); format: functional;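 note: fluorescence from hydrolysis of an O-methyl fluorescein acyl ester substrate by the enzyme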
# T6 sequence (P49327 whole entry): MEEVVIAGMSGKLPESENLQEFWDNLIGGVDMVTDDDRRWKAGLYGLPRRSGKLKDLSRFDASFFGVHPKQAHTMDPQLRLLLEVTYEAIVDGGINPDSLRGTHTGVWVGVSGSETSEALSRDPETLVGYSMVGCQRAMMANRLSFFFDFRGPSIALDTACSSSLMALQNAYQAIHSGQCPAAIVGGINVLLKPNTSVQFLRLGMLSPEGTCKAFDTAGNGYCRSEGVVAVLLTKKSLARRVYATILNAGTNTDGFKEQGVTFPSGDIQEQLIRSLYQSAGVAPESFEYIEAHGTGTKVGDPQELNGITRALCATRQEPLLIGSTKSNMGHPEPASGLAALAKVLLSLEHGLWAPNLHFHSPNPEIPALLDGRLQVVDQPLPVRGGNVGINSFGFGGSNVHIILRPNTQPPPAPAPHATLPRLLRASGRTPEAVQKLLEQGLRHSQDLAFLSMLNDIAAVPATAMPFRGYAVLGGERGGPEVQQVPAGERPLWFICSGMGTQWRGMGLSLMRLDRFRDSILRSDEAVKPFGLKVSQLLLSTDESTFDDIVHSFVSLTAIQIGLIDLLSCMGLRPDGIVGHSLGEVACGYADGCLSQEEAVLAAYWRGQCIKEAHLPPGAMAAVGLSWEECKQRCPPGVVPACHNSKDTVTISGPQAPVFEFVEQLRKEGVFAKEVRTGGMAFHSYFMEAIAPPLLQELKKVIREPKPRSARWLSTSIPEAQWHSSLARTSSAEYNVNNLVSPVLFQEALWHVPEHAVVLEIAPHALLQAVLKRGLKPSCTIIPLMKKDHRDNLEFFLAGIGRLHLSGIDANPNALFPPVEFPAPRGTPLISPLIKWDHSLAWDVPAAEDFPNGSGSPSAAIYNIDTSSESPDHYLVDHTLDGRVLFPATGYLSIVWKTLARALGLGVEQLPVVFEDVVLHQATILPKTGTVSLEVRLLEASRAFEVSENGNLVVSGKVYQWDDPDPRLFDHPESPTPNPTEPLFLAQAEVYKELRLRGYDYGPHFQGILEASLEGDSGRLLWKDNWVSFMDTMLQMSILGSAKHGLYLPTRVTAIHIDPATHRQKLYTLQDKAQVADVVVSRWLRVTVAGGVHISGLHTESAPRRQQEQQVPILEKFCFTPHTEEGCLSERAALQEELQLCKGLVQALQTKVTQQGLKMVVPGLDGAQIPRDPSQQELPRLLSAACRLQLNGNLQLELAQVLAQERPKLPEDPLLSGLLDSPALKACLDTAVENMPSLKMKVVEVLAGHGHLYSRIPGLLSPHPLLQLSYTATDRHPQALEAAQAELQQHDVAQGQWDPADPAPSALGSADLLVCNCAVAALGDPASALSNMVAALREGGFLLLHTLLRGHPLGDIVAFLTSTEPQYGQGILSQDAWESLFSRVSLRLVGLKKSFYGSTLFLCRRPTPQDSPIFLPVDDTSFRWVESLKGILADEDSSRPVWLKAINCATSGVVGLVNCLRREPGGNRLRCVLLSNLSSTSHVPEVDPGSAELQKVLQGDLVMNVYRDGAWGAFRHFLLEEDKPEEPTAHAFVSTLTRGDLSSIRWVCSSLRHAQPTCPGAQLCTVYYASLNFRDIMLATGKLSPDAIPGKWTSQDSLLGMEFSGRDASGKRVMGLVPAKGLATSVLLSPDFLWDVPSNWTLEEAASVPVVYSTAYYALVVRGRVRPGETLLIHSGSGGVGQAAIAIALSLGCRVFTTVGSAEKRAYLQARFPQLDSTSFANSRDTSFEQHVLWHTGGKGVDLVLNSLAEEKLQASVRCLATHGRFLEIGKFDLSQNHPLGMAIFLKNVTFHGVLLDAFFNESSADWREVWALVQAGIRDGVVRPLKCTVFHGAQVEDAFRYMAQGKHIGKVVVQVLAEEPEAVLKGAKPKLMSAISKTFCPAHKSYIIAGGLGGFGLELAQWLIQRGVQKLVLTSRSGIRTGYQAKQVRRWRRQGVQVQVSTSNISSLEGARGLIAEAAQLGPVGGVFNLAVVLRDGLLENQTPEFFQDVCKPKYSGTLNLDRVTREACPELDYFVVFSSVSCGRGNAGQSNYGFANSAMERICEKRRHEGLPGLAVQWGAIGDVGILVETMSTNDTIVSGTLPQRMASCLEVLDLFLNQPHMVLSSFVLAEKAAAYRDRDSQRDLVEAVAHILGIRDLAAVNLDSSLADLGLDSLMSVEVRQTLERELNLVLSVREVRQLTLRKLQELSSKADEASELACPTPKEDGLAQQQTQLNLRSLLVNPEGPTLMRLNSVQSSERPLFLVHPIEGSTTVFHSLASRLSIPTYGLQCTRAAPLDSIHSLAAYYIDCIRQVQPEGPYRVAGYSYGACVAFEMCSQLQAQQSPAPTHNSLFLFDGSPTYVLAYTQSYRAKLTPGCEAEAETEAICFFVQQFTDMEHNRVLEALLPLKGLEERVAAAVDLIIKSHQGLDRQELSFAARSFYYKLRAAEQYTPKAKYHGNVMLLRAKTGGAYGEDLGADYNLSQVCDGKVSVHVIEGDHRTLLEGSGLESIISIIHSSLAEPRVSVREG
# [6] = molecular target: Heat shock protein HSP 90-alpha (Homo sapiens, UniProt P07900); format: functional, organism-based
# Vero = assay: viability of Vero cells under compound – cytotoxicity control for flavivirus capping enzyme inhibitors (AID 588742); format: functional; details: Chlorocebus sabaeus
# [7] = molecular target: T4, Polyadenylate-binding protein 1; assay: MLLE binding blockers, Cy5 peptide tracer – biochemical, fluorescence polarization, Cy5-PAM2 peptide, secondary, miRNA deadenylation inhibitor project, dose response (AID 602260); format: functional; details: read-out: IC50_Mean
# [8] = general cell-killing toxicity readout – plate reader, dry powder samples, cytotoxicity control for PAX8 inhibitor project, dose response (AID 743021); format: functional, cell-based
# Paired box protein Pax-8 = Paired box protein Pax-8 (Homo sapiens, UniProt Q06710); assay: PAX8 transcriptional activity inhibition in RMG-I – RMG-I cells, luciferase, cherry-pick, dose response (AID 687027); format: functional, cell-based;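 note: luciferase reporter driven by Pax8 target thyroperoxidase promoter measured by SteadyGlo luminescence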
# [9] = molecular target: T4, Polyadenylate-binding protein 1; assay: MLLE domain peptide-binding blockers, IC50 – biochemical, fluorescence polarization, FITC-PAM2 peptide, dose response (AID 602259); format: functional; details: read-out: IC50_Mean
# [10] = viability loss in THP-1 monocytes – THP-1 cells, cytotoxicity control for Vif-APOBEC3G degradation inhibitor project, dose response (AID 1117359); format: functional; details: THP-1
# [11] = molecular target: T7, Tyrosyl-DNA phosphodiesterase 2 (Homo sapiens, UniProt O95551); assay: potency against TDP2 phosphodiesterase activity – biochemical, epi absorbance, IC50, dose response (AID 743297)
# T7 sequence (O95551 whole entry): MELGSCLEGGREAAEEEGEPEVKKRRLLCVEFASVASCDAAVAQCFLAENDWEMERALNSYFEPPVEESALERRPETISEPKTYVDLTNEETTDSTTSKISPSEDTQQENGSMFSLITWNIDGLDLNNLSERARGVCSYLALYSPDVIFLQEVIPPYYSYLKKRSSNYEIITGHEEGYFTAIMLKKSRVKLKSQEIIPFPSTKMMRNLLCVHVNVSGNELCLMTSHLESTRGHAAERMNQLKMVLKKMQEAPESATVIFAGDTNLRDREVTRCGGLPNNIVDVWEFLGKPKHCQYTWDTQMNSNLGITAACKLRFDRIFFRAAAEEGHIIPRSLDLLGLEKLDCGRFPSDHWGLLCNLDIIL
# CHO = CHO cell viability loss, potency – luminescence, cytotoxicity control for TLR9-MyD88 binding inhibitor project, dose response (AID 588339); format: functional, cell-based, hamster; details: Cricetulus griseus;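 note: CHO cells stably coexpressing TLR9 and MyD88 fusions from primary screen; compound exposure lasted 48 hours before viability readout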
# Fatty acid synthase [12] = molecular target: T6, Fatty acid synthase; assay: inhibition of human FAS-TE enzyme activity – biochemical, kinetic fluorescence intensity, dose response (AID 624326); format: functional;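 note: rate of fluorescence rise from hydrolysis of a fluorogenic O-methyl fluorescein ester substrate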
# Beta Lactamase = Beta Lactamase (Pseudomonas aeruginosa, UniProt Q932Y6); assay: BLA reporter interference, concentration series – BLA reporter cells, FRET fluorescence, artefact control for TLR9-MyD88 binding inhibitor project, dose response (AID 588341); format: cell-based;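 note: cell based assay in CHO-K1 cells stably expressing beta-lactamase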
# Chain of Beta Lactamase (Q932Y6 whole entry): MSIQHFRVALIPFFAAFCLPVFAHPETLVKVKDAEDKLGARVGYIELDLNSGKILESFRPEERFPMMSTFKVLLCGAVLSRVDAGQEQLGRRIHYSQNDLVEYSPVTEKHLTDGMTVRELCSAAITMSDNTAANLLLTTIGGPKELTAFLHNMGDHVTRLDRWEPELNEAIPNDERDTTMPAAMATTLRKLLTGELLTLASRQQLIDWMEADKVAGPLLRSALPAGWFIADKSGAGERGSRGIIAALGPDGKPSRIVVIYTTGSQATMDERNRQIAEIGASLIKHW
# [13] = M. tuberculosis H37Rv growth inhibitors, H37Rv strain (AID 1626); format: functional
smiles,measurement,setting,value
O=C1NN(c2ccccc2)C(=O)/C1=C/c1ccc(-c2ccc(Cl)c(C(=O)O)c2)o1,IC50,[1],4.07 µM (active)
same,IC50,Large T antigen,17.1 µM (active)
same,IC50,[2],80.4 µM (active)
same,IC50,Genome polyprotein,32.2 µM (active)
O=S(=O)(NC1CCCCCC1)c1cccc2cccnc12,EC50,Ion channel NompC,> 29.9 µM (not active)
same,EC50,Mucolipin-3,3.4 µM (active)
COc1cc(/C=N/NC(=O)c2ccccc2)ccc1OCC(=O)Nc1ccc([N+](=O)[O-])cc1,IC50,[3],2.74 µM (active)
same,IC50,[4],49.5 µM (active)
CCCC(=O)NC1=C(Cl)C(=O)c2ccccc2C1=O,IC50,Hexokinase HKDC1,3.93 µM (active)
same,IC50,Fatty acid synthase [5],37.7 µM (inactive)
same,AC50,[6],< 195 nM (active)
same,CC50,Vero,27.4 µM (active)
same,IC50,[7],> 66 µM (inactive)
same,IC50,Genome polyprotein,14.5 µM (active)
same,AC50,[8],28.3 µM (active)
same,AC50,Paired box protein Pax-8,2.54 µM (active)
same,IC50,[9],> 66 µM (inactive)
same,CC50,[10],3.81 µM (active)
same,IC50,[11],11.8 µM (inactive)
same,IC50,CHO,891 nM (active)
same,IC50,Fatty acid synthase [12],12.7 µM (active)
same,IC50,Beta Lactamase,6.78 µM (active)
Cc1sc(N)nc1-c1ccccc1,IC50,[13],> 100 µM (active)
O/N=C/c1ccc2ccccc2c1,IC50,[13],> 100 µM (active)
